{"source": "patent US12251374B2", "about": "“Fampridine TTS” (LTS Lohmann Therapie-Systeme AG, priority 2017, dated 2025)", "key": {"[1]": {"assay": "Solubility of fampridine base in organic solvents", "type": "physicochemical", "method": "Since toluene polysiloxane solution is not commercially obtainable, BIO PSA 4201 from Dow Chemicals (polysiloxane in n-heptane) was used as starting material. The solvent was evaporated and the rubber-like polymer residue was dissolved with so much toluene that a solution with approximately 75% solids was obtained."}, "[2]": {"assay": "Saturation concentration Cs of fampridine in polymer matrices (\"sandwich\" method by Liu)", "type": "physicochemical", "conditions": "for Cs of fampridine: 7 days at room temperature", "method": "The saturation concentration Cs of […] determined in various polymer matrices by the method described by Liu. (Liu, P., Gargiulo, P., Wong, J., and Novartis (1997). A Novel Method for Measuring Solubility of a Drug in an Adhesive, Pharmaceutical Research 14, page 317). In this method, known by specialists as the “sandwich” method, the saturation concentration is determined as follows: A laminate is constructed, having the following layer sequence: protective film-donor layer with active ingredient (dissolved and undissolved)-active ingredient-permeable membrane-acceptor layer without active ingredient-protective film. The two protective films are made of identical material; the matrix material of the donor and of the acceptor layer is likewise identical. The donor layer is produced by dissolving the active ingredient in a solution of the polymer in organic solvent. The concentration of the active ingredient must be selected to be high enough that an undissolved residue can be identified in the polymer matrix so that the saturation concentration Cs in the donor layer is reliably exceeded. This solution is applied to the protective film, and the process solvent is evaporated. The adhesive surface of the donor layer is then covered with the membrane. A dialysis tube made of regenerated cellulose (ZelluTrans®, from Roth, 46 mm flat width) that has been cut to size in the longitudinal direction is used as membrane. The acceptor layer is produced without active ingredient, similarly to the donor layer, and the membrane is applied to the other side. The laminates thus produced are then stored for 7 days at room temperature, during which time the active ingredient diffuses through the membrane into the acceptor layer. The active ingredient concentration in the […] is then determined. To this end, aliquots of approximately 1 cm^2 are punched out using a punching tool of standardised area. The membrane is then removed, the punched blanks without membrane are weighed, and their weight is recorded (m1). The punched blanks are then placed in organic solvent so as to remove the matrices. The backing layers are removed, washed, and dried, and their weight (m2) is determined. […] The concentration of […] solution is then calculated using an HPLC method, and its concentration in the […] is calculated. The saturation concentrations of […] different polymer matrices determined on the basis of this test approach are summarised in Table 1: […]"}}}
{"compound": "Nc1ccncc1", "note": "[fampridine, 4-aminopyridine]", "values": [{"measurement": "Solubility", "setting": "[1]; in aromatic hydrocarbons", "value": "sufficiently soluble"}, {"measurement": "Solubility", "setting": "[1]; in n-heptane", "value": "not"}, {"measurement": "saturation concentration Cs relative to neutral polymers", "setting": "[2]; in acidic polymers vs neutral polymers", "value": "approximately 3 times higher"}, {"measurement": "Cs of fampridine", "setting": "[2]; in acrylate copolymer of 2-ethylhexylacrylate, butyl acrylate, vinyl acetate, acrylic acid, ethyl acetate", "value": 7.4, "unit": "%"}, {"measurement": "Cs of fampridine", "setting": "[2]; in acrylate copolymer of 2-ethylhexylacrylate, vinyl acetate and 2-hydroxyethyl acrylate, ethyl acetate", "value": 3.3, "unit": "%"}, {"measurement": "saturation concentration Cs of fampridine", "setting": "[2]; in neutral polymers (summary of Table 1)", "value": "approximately 3%"}, {"measurement": "Cs of fampridine", "setting": "[2]; in polyisobutylene, polymer dissolved in toluene", "value": 2.2, "unit": "%"}, {"measurement": "Cs of fampridine (in words)", "setting": "[2]; in polysiloxane", "value": "especially low"}, {"measurement": "Cs of fampridine", "setting": "[2]; in polysiloxane, ethyl acetate", "value": 0.3, "unit": "%"}, {"measurement": "Cs of fampridine", "setting": "[2]; in styrene-isoprene-styrene block copolymer, polymer dissolved in toluene", "value": 2.7, "unit": "%"}]}
